# Values quoted from earlier work in patent US20030073580A1, “Composition for treating cells and method for qualitatively and quantitatively customizing the formulation thereof” (priority 2001, published 2003).
# Read-outs that look alike come from different tables or passages of the source.
# Test system: plant leaves
# [1] = Sulfate 0.1 Mg SO4/L (0.0334 milligrams elemental S)
# [2] = Sulfate 1.0 Mg SO4/L (0.3340 milligrams elemental S)
# [3] = Sulfate 10.0 Mg SO4/L (3.3400 milligrams elemental S)
# [4] = Sulfate 50.0 Mg SO4/L (16.7000 milligrams elemental S)
# [5] = Sulfate 200.0 Mg SO4/L (66.8000 milligrams elemental S)
smiles,measurement,setting,value
S1SSSSSSS1 [sulfur],free nitrate nitrogen in plant leaves,available sulfur approximately 16.7 mg per liter,zero
same,optimal concentration of available sulfur in a fertilizer mixture,concentration at which free nitrate drops to zero and organic sulfur and protein nitrogen reach their maximum,approximately 16.7 mg per liter
O=S(=O)(O)O [Sulfate],Inorganic S,[1],0.003 Percentage of Dry Weight
same,Leaf Dry Wt,[1],1.1 g/plant
same,Nitrate N,[1],1.39 Percentage of Dry Weight
same,Organic N,[1],2.23 Percentage of Dry Weight
same,Organic S,[1],0.11 Percentage of Dry Weight
same,Protein N,[1],0.96 Percentage of Dry Weight
same,Inorganic S,[2],0.003 Percentage of Dry Weight
same,Leaf Dry Wt,[2],2.4 g/plant
same,Nitrate N,[2],1.37 Percentage of Dry Weight
same,Organic N,[2],2.21 Percentage of Dry Weight
same,Organic S,[2],0.12 Percentage of Dry Weight
same,Protein N,[2],1.28 Percentage of Dry Weight
same,Inorganic S,[3],0.009 Percentage of Dry Weight
same,Leaf Dry Wt,[3],3.4 g/plant
same,Nitrate N,[3],0.06 Percentage of Dry Weight
same,Organic N,[3],1.19 Percentage of Dry Weight
same,Organic S,[3],0.17 Percentage of Dry Weight
same,Protein N,[3],2.56 Percentage of Dry Weight
same,Inorganic S,[4],0.100 Percentage of Dry Weight
same,Leaf Dry Wt,[4],4.7 g/plant
same,Nitrate N,[4],0.00 Percentage of Dry Weight
same,Organic N,[4],0.51 Percentage of Dry Weight
same,Organic S,[4],0.26 Percentage of Dry Weight
same,Protein N,[4],3.25 Percentage of Dry Weight
same,Inorganic S,[5],0.360 Percentage of Dry Weight
same,Leaf Dry Wt,[5],4.7 g/plant
same,Nitrate N,[5],0.10 Percentage of Dry Weight
same,Organic N,[5],0.45 Percentage of Dry Weight
same,Organic S,[5],0.25 Percentage of Dry Weight
same,Protein N,[5],3.20 Percentage of Dry Weight
